In PubChem BioAssay AID1259407 (Chemical Carcinogenesis Research Information System (CCRIS), 2018):
The source made the active and inactive calls. How the calls were made is not given here.

Tested on: CCRIS mutagenicity, Ames/micronucleus/aberration tests
Assay: CCRIS mutagenicity studies
[1] = Test System: AMES SALMONELLA TYPHIMURIUM, Strain/Indicator: TA1535, Metabolic Activation: NONE, Method: STANDARD PLATE
[2] = Test System: AMES SALMONELLA TYPHIMURIUM, Strain/Indicator: TA98, Metabolic Activation: NONE, Method: PREINCUBATION
[3] = Test System: AMES SALMONELLA TYPHIMURIUM, Strain/Indicator: TA100, Metabolic Activation: NONE, Method: PREINCUBATION
[4] = Test System: AMES SALMONELLA TYPHIMURIUM, Strain/Indicator: TA1535, Metabolic Activation: NONE, Method: PREINCUBATION
[5] = Test System: AMES SALMONELLA TYPHIMURIUM, Strain/Indicator: TA98, Metabolic Activation: NONE, Method: STANDARD PLATE
[6] = Test System: AMES SALMONELLA TYPHIMURIUM, Strain/Indicator: TA100, Metabolic Activation: NONE, Method: STANDARD PLATE
[7] = Test System: AMES SALMONELLA TYPHIMURIUM, Strain/Indicator: TA1537, Metabolic Activation: NONE, Method: STANDARD PLATE
[8] = Test System: AMES SALMONELLA TYPHIMURIUM, Strain/Indicator: TA97, Metabolic Activation: HAMSTER, LIVER, S-9, AROCLOR 1254 (10 OR 30%), Method: PREINCUBATION
[9] = Test System: AMES SALMONELLA TYPHIMURIUM, Strain/Indicator: TA97, Metabolic Activation: NONE, Method: PREINCUBATION
[10] = Test System: AMES SALMONELLA TYPHIMURIUM, Strain/Indicator: TA97, Metabolic Activation: RAT, LIVER, S-9, AROCLOR 1254 (10 OR 30%), Method: PREINCUBATION
[11] = Test System: AMES SALMONELLA TYPHIMURIUM, Strain/Indicator: TA98, Metabolic Activation: HAMSTER, LIVER, S-9, AROCLOR 1254 (10 OR 30%), Method: PREINCUBATION
[12] = Test System: AMES SALMONELLA TYPHIMURIUM, Strain/Indicator: TA98, Metabolic Activation: RAT, LIVER, S-9, AROCLOR 1254 (10 OR 30%), Method: PREINCUBATION
[13] = Test System: AMES SALMONELLA TYPHIMURIUM, Strain/Indicator: TA100, Metabolic Activation: HAMSTER, LIVER, S-9, AROCLOR 1254 (10 OR 30%), Method: PREINCUBATION
[14] = Test System: AMES SALMONELLA TYPHIMURIUM, Strain/Indicator: TA100, Metabolic Activation: RAT, LIVER, S-9, AROCLOR 1254 (10 OR 30%), Method: PREINCUBATION
[15] = Test System: AMES SALMONELLA TYPHIMURIUM, Strain/Indicator: TA1535, Metabolic Activation: HAMSTER, LIVER, S-9, AROCLOR 1254 (10 OR 30%), Method: PREINCUBATION
[16] = Test System: AMES SALMONELLA TYPHIMURIUM, Strain/Indicator: TA1535, Metabolic Activation: RAT, LIVER, S-9, AROCLOR 1254 (10 OR 30%), Method: PREINCUBATION

SMILES | mutagenic call [1] | mutagenic call [2] | mutagenic call [3] | mutagenic call [4] | mutagenic call [5] | mutagenic call [6] | mutagenic call [7] | mutagenic call [8] | mutagenic call [9] | mutagenic call [10] | mutagenic call [11] | mutagenic call [12] | mutagenic call [13] | mutagenic call [14] | mutagenic call [15] | mutagenic call [16] | other results
O=[Se](O)O | active; positive |  |  |  |  |  |  |  |  |  |  |  |  |  |  |  | mutagenic call (End Point: IN VIVO CHROMOSOMAL ABERRATIONS, Test System: TESTICULAR CELLS, Species: MOUSE, Strain/Sex: KUNMING/MALE, Route: DIET): selenite reduced number of chromosomal aberrations induced by mmc; mutagenic call (End Point: IN VIVO MICRONUCLEUS, Test System: BONE MARROW CELLS, POLYCHROMATIC ERYTHROCYTES, Species: MOUSE, Strain/Sex: KUNMING/FEMALE, Route: DIET): selenite reduced micronuclei induced by cyclophosphamide; mutagenic call (Test System: CHINESE HAMSTER OVARY, Strain/Indicator: CHO-K1-BH4 (HGPRT)/6-THIOGUANINE, Metabolic Activation: NONE): active; positive; mutagenic call (Test System: E. COLI, Strain/Indicator: WP2 UVRA, Metabolic Activation: NONE, Method: SPOT TEST): inactive; negative; mutagenic call (Test System: MOUSE LYMPHOMA, Strain/Indicator: L5178Y (TK+/TK-), Metabolic Activation: NONE, Method: SUSPENSION/PLATE): active; positive. reevaluation of results: positive; mutagenic call (Test System: MOUSE LYMPHOMA, Strain/Indicator: L5178Y (TK+/TK-), Metabolic Activation: RAT, LIVER, S-9, AROCLOR 1254, Method: SUSPENSION/PLATE): active; positive. reevaluation of results: positive; mutagenic call (Test System: UDS HUMAN FIBROBLASTS, Strain/Indicator: THY INCORP (NON-S-PHASE), Metabolic Activation: MOUSE, LIVER, S-9, Method: AUTORADIOGRAPHY): active; positive
O=C(Cl)c1ccccc1F |  | inactive; negative | inactive; negative | inactive; negative |  |  |  |  |  |  |  |  |  |  |  |  | mutagenic call (Test System: AMES SALMONELLA TYPHIMURIUM, Strain/Indicator: TA98, Metabolic Activation: HAMSTER, LIVER, S-9, AROCLOR 1254, Method: PREINCUBATION): active; positive; mutagenic call (Test System: AMES SALMONELLA TYPHIMURIUM, Strain/Indicator: TA98, Metabolic Activation: RAT, LIVER, S-9, AROCLOR 1254, Method: PREINCUBATION): active; positive; mutagenic call (Test System: AMES SALMONELLA TYPHIMURIUM, Strain/Indicator: TA100, Metabolic Activation: HAMSTER, LIVER, S-9, AROCLOR 1254, Method: PREINCUBATION): active; positive; mutagenic call (Test System: AMES SALMONELLA TYPHIMURIUM, Strain/Indicator: TA100, Metabolic Activation: RAT, LIVER, S-9, AROCLOR 1254, Method: PREINCUBATION): active; positive; mutagenic call (Test System: AMES SALMONELLA TYPHIMURIUM, Strain/Indicator: TA1535, Metabolic Activation: HAMSTER, LIVER, S-9, AROCLOR 1254, Method: PREINCUBATION): inactive; negative; mutagenic call (Test System: AMES SALMONELLA TYPHIMURIUM, Strain/Indicator: TA1535, Metabolic Activation: RAT, LIVER, S-9, AROCLOR 1254, Method: PREINCUBATION): inactive; negative; mutagenic call (Test System: AMES SALMONELLA TYPHIMURIUM, Strain/Indicator: TA1537, Metabolic Activation: HAMSTER, LIVER, S-9, AROCLOR 1254, Method: PREINCUBATION): inactive; negative; mutagenic call (Test System: AMES SALMONELLA TYPHIMURIUM, Strain/Indicator: TA1537, Metabolic Activation: NONE, Method: PREINCUBATION): inactive; negative; mutagenic call (Test System: AMES SALMONELLA TYPHIMURIUM, Strain/Indicator: TA1537, Metabolic Activation: RAT, LIVER, S-9, AROCLOR 1254, Method: PREINCUBATION): inactive; negative
CCOC(=O)C(C)=O | inactive; negative |  |  |  | inactive; negative | inactive; negative | inactive; negative |  |  |  |  |  |  |  |  |  | mutagenic call (Test System: AMES SALMONELLA TYPHIMURIUM, Strain/Indicator: TA98, Metabolic Activation: RAT, LIVER, S-9, AROCLOR 1254, Method: STANDARD PLATE): inactive; negative; mutagenic call (Test System: AMES SALMONELLA TYPHIMURIUM, Strain/Indicator: TA100, Metabolic Activation: RAT, LIVER, S-9, AROCLOR 1254, Method: STANDARD PLATE): inactive; negative; mutagenic call (Test System: AMES SALMONELLA TYPHIMURIUM, Strain/Indicator: TA1535, Metabolic Activation: RAT, LIVER, S-9, AROCLOR 1254, Method: STANDARD PLATE): inactive; negative; mutagenic call (Test System: AMES SALMONELLA TYPHIMURIUM, Strain/Indicator: TA1537, Metabolic Activation: RAT, LIVER, S-9, AROCLOR 1254, Method: STANDARD PLATE): inactive; negative
C[C@H]1CCCC(=O)CCCCCc2cc(O)cc(O)c2C(=O)O1 | inactive; negative |  |  |  | inactive; negative | inactive; negative | inactive; negative |  |  |  |  |  |  |  |  |  | mutagenic call (Test System: AMES SALMONELLA TYPHIMURIUM, Strain/Indicator: TA98, Metabolic Activation: RAT, LIVER, S-9, Method: STANDARD PLATE): inactive; negative; mutagenic call (Test System: AMES SALMONELLA TYPHIMURIUM, Strain/Indicator: TA100, Metabolic Activation: RAT, LIVER, S-9, Method: STANDARD PLATE): inactive; negative; mutagenic call (Test System: AMES SALMONELLA TYPHIMURIUM, Strain/Indicator: TA1535, Metabolic Activation: RAT, LIVER, S-9, Method: STANDARD PLATE): inactive; negative; toxicity at 1000 ug/plate; mutagenic call (Test System: AMES SALMONELLA TYPHIMURIUM, Strain/Indicator: TA1537, Metabolic Activation: RAT, LIVER, S-9, Method: STANDARD PLATE): inactive; negative; mutagenic call (Test System: AMES SALMONELLA TYPHIMURIUM, Strain/Indicator: TA1538, Metabolic Activation: NONE, Method: STANDARD PLATE): inactive; negative; mutagenic call (Test System: AMES SALMONELLA TYPHIMURIUM, Strain/Indicator: TA1538, Metabolic Activation: RAT, LIVER, S-9, Method: STANDARD PLATE): inactive; negative
Cc1ccccc1C(N)=O |  | inactive; negative | inactive; negative | inactive; negative |  |  |  | inactive; negative | inactive; negative | inactive; negative | inactive; negative | inactive; negative | inactive; negative | inactive; negative | inactive; negative | inactive; negative | 
CCNc1ccccc1 |  | inactive; negative | inactive; negative | inactive; negative |  |  |  | inactive; negative | inactive; negative | inactive; negative | inactive; negative | inactive; negative | inactive; negative | inactive; negative | inactive; negative | inactive; negative | 
